Test results as given in patent publication US20070010671A1, “Novel quinazoline derivatives and methods of treatment related to the use thereof” (priority 2003, published 2007).

These molecules were tested against MCH receptor (Homo sapiens, UniProt Q99705) (assay: High throughput functional screening FLIPR/FDSS6000: inhibition of MCH-evoked intracellular Ca2+ changes). Conditions: class by percent of control at 10^-7 M or IC50.
Format: cell-based
How it was run: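 Antagonism is measured as inhibition of the intracellular calcium rise triggered by 50 nM MCH in cells bearing a constitutively active, non-endogenous form of the receptor. Cells are dye-loaded with Fluo4-AM and exposed to compound for 3 min at 37° C before agonist addition.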
For `CN(C)c1nc(N[C@H]2CC[C@@H](NC(=S)Nc3ccc(C(F)(F)F)cc3)CC2)nc2ccccc12` [compound 231, N-(cis-4-{[4-(dimethylamino)quinazolin-2-yl]amino}cyclohexyl)-N′-[4-(trifluoromethyl)phenyl]thiourea], the class was 2 (Class 2: The value of percent of control at 10^−7 M was from 40% to 60% or the value of IC50 was from 50 nM to 200 nM.). `CN(C)c1nc(N[C@H]2CC[C@@H](NC(=S)Nc3ccc(SC(F)(F)F)cc3)CC2)nc2ccccc12` [compound 232] was tested, and the class was 3 (Class 3: The value of percent of control at 10^−7 M was more than 60% or the value of IC50 was more than 200 nM.). For `CN(C)c1nc(N[C@H]2CC[C@@H](NC(=S)Nc3ccc(Br)cc3Cl)CC2)nc2ccccc12` [compound 233], the class was 1 (Class 1: The value of percent of control at 10^−7 M was less than 40% or the value of IC50 was less than 50 nM.). `CN(C)c1nc(N[C@H]2CC[C@@H](NC(=S)Nc3ccc(Br)cc3F)CC2)nc2ccccc12` [compound 234] was tested, and the class was 3 (Class 3: The value of percent of control at 10^−7 M was more than 60% or the value of IC50 was more than 200 nM.). In the case of `CN(C)c1nc(N[C@H]2CC[C@@H](NC(=S)Nc3ccc(Cl)c(C(F)(F)F)c3)CC2)nc2ccccc12` [compound 235], the class is reported as 3 (Class 3: The value of percent of control at 10^−7 M was more than 60% or the value of IC50 was more than 200 nM.). With `CN(C)c1nc(N[C@H]2CC[C@@H](NC(=S)Nc3ccc(F)c(C(F)(F)F)c3)CC2)nc2ccccc12` [compound 236] the class was 3 (Class 3: The value of percent of control at 10^−7 M was more than 60% or the value of IC50 was more than 200 nM.). In the case of `CN(C)c1nc(N[C@H]2CC[C@@H](NC(=S)Nc3ccc(I)cc3)CC2)nc2ccccc12` [compound 237], the class is reported as 1 (Class 1: The value of percent of control at 10^−7 M was less than 40% or the value of IC50 was less than 50 nM.). With `Cc1ccc(Cl)cc1NC(=S)N[C@H]1CC[C@@H](Nc2nc(N(C)C)c3ccccc3n2)CC1` [compound 238] the class was 2 (Class 2: The value of percent of control at 10^−7 M was from 40% to 60% or the value of IC50 was from 50 nM to 200 nM.). For `CN(C)c1nc(N[C@H]2CC[C@@H](NC(=S)NC3C[C@@H]4CC[C@H]3C4)CC2)nc2ccccc12` (some centres unmarked) [compound 239], the class was 2 (Class 2: The value of percent of control at 10^−7 M was from 40% to 60% or the value of IC50 was from 50 nM to 200 nM.). For `CN(C)c1nc(N[C@H]2CC[C@@H](NC(=S)Nc3ccc(NC(=O)OC(C)(C)C)cc3)CC2)nc2ccccc12` [compound 240], the class was 3 (Class 3: The value of percent of control at 10^−7 M was more than 60% or the value of IC50 was more than 200 nM.). With `COc1ccc(CCNC(=S)N[C@H]2CC[C@@H](Nc3nc(N(C)C)c4ccccc4n3)CC2)cc1OC` [compound 241] the class was 3 (Class 3: The value of percent of control at 10^−7 M was more than 60% or the value of IC50 was more than 200 nM.). `CN(C)c1nc(N[C@H]2CC[C@@H](NC(=S)NCCc3ccc(Cl)cc3)CC2)nc2ccccc12` [compound 242] was tested, and the class was 2 (Class 2: The value of percent of control at 10^−7 M was from 40% to 60% or the value of IC50 was from 50 nM to 200 nM.). In the case of `CN(C)c1nc(N[C@H]2CC[C@@H](NC(=S)Nc3cc(Cl)c(Cl)c(Cl)c3Cl)CC2)nc2ccccc12` [compound 243], the class is reported as 3 (Class 3: The value of percent of control at 10^−7 M was more than 60% or the value of IC50 was more than 200 nM.). In the case of `CN(C)c1nc(N[C@H]2CC[C@@H](NC(=S)Nc3cc(Cl)c(Cl)cc3Cl)CC2)nc2ccccc12` [compound 244], the class is reported as 3 (Class 3: The value of percent of control at 10^−7 M was more than 60% or the value of IC50 was more than 200 nM.). `CN(C)c1nc(N[C@H]2CC[C@@H](NC(=S)Nc3c(Cl)cc(Cl)cc3Cl)CC2)nc2ccccc12` [compound 246, N-(cis-4-{[4-(dimethylamino)quinazolin-2-yl]amino}cyclohexyl)-N′-(2,4,6-trichlorophenyl)thiourea] was tested, and the class was 1 (Class 1: The value of percent of control at 10^−7 M was less than 40% or the value of IC50 was less than 50 nM.). For `CN(C)c1nc(N[C@H]2CC[C@@H](NC(=S)Nc3c(F)cc(F)cc3F)CC2)nc2ccccc12` [compound 247], the class was 3 (Class 3: The value of percent of control at 10^−7 M was more than 60% or the value of IC50 was more than 200 nM.). In the case of `Cc1cc(C)c(NC(=S)N[C@H]2CC[C@@H](Nc3nc(N(C)C)c4ccccc4n3)CC2)c(C)c1` [compound 248, N-(cis-4-{[4-(dimethylamino)quinazolin-2-yl]amino}cyclohexyl)-N′-mesitylthiourea], the class is reported as 1 (Class 1: The value of percent of control at 10^−7 M was less than 40% or the value of IC50 was less than 50 nM.). With `Cc1ccc(NC(=S)N[C@H]2CC[C@@H](Nc3nc(N(C)C)c4ccccc4n3)CC2)c(C)c1` [compound 249, N-(cis-4-{[4-(dimethylamino)quinazolin-2-yl]amino}cyclohexyl)-N′-(2,4-dimethylphenyl)thiourea] the class was 1 (Class 1: The value of percent of control at 10^−7 M was less than 40% or the value of IC50 was less than 50 nM.). In the case of `CCc1cccc(CC)c1NC(=S)N[C@H]1CC[C@@H](Nc2nc(N(C)C)c3ccccc3n2)CC1` [compound 250, N-(2,6-diethylphenyl)-N′-(cis-4-{[4-(dimethylamino)quinazolin-2-yl]amino}cyclohexyl)thiourea], the class is reported as 1 (Class 1: The value of percent of control at 10^−7 M was less than 40% or the value of IC50 was less than 50 nM.). `CC(C)c1cccc(C(C)C)c1NC(=S)N[C@H]1CC[C@@H](Nc2nc(N(C)C)c3ccccc3n2)CC1` [compound 251] was tested, and the class was 2 (Class 2: The value of percent of control at 10^−7 M was from 40% to 60% or the value of IC50 was from 50 nM to 200 nM.). In the case of `Cc1ccc(NC(=S)N[C@H]2CC[C@@H](Nc3nc(N(C)C)c4ccccc4n3)CC2)c(Br)c1` [compound 252], the class is reported as 1 (Class 1: The value of percent of control at 10^−7 M was less than 40% or the value of IC50 was less than 50 nM.). For `CN(C)c1nc(N[C@H]2CC[C@@H](NC(=S)Nc3cc(C(F)(F)F)ccc3Cl)CC2)nc2ccccc12` [compound 253], the class was 3 (Class 3: The value of percent of control at 10^−7 M was more than 60% or the value of IC50 was more than 200 nM.). `CN(C)c1nc(N[C@H]2CC[C@@H](NC(=S)NCc3ccccc3Cl)CC2)nc2ccccc12` [compound 254, N-(2-chlorobenzyl)-N′-(cis-4-{[4-(dimethylamino)quinazolin-2-yl]amino}cyclohexyl)thiourea] was tested, and the class was 1 (Class 1: The value of percent of control at 10^−7 M was less than 40% or the value of IC50 was less than 50 nM.). With `CCc1cccc(C)c1NC(=S)N[C@H]1CC[C@@H](Nc2nc(N(C)C)c3ccccc3n2)CC1` [compound 255, N-(cis-4-{[4-(dimethylamino)quinazolin-2-yl]amino}cyclohexyl)-N′-(2-ethyl-6-methylphenyl)thiourea] the class was 1 (Class 1: The value of percent of control at 10^−7 M was less than 40% or the value of IC50 was less than 50 nM.). `CC(C)c1ccccc1NC(=S)N[C@H]1CC[C@@H](Nc2nc(N(C)C)c3ccccc3n2)CC1` [compound 256, N-(cis-4-{[4-(dimethylamino)quinazolin-2-yl]amino}cyclohexyl)-N′-(2-isopropylphenyl)thiourea] was tested, and the class was 1 (Class 1: The value of percent of control at 10^−7 M was less than 40% or the value of IC50 was less than 50 nM.). `CSc1cccc(NC(=S)N[C@H]2CC[C@@H](Nc3nc(N(C)C)c4ccccc4n3)CC2)c1` [compound 257] was tested, and the class was 3 (Class 3: The value of percent of control at 10^−7 M was more than 60% or the value of IC50 was more than 200 nM.).
